# According to patent US10532053B2, “Histone deacetylase inhibitor, and preparation method and use thereof” (GUANGDONG ZHONGSHENG PHARMACEUTICAL CO., LTD, priority 2015, dated 2020):
# Like-named read-outs stand apart in the source and are kept apart here.
# Assays:
# [1] = molecular target: T1, HDAC6 (Homo sapiens, UniProt Q9UBN7); test: HDAC inhibitory activity, fluorescence-coupled acetylated peptide substrate assay; type: biochemical; conditions: for Selection Ratio HDAC1/6: ratio of IC50 HDAC1 to HDAC6; for Selection Ratio HDAC8/6: ratio of IC50 HDAC8 to HDAC6
# T1 sequence (Q9UBN7 1-1215): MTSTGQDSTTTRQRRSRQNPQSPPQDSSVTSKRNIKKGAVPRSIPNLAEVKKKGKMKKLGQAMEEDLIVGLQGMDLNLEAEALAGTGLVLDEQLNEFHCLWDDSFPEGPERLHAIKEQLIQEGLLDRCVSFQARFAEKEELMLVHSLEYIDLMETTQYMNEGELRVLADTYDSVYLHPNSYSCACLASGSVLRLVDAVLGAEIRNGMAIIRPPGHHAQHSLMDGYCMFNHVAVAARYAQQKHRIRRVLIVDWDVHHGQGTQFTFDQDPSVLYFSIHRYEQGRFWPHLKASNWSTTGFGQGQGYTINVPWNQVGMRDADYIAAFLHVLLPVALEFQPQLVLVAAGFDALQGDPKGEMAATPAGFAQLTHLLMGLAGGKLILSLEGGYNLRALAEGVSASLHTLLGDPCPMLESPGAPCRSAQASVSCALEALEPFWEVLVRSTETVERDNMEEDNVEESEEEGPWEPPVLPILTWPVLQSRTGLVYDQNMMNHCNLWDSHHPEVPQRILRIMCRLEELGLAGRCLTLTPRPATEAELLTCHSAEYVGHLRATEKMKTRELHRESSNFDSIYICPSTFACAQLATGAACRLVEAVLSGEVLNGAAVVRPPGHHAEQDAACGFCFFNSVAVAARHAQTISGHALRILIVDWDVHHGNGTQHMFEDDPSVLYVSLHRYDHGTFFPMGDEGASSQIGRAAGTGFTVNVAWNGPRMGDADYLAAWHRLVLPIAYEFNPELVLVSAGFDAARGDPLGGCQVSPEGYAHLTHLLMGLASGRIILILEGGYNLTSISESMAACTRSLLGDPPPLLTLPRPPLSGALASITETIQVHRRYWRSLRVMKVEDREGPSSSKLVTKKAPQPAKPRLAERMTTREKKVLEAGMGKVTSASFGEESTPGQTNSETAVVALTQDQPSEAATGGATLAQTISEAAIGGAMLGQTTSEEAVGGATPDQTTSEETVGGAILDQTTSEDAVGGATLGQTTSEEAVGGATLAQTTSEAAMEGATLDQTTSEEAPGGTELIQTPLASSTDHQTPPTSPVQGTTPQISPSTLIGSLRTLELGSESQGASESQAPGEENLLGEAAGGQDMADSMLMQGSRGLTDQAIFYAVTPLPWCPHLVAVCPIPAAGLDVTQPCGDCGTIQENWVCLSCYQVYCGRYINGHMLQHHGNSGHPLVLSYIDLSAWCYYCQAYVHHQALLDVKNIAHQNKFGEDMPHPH
# Experimental: (§2) The HDAC inhibitory activity was determined by fluorescence-coupled acetylated peptide substrate assay (Lys-Ac-AMC). HDAC1 protein was purchased from BPS Bioscience, and the reaction buffer system was a modified tris(hydroxymethyl)aminomethane buffer (pH 7.0). The small molecule compounds of the present invention were prepared by being dissolved in 100% DMSO. HDAC was prepared in a buffer at a certain concentration as an enzyme solution; trypsin and fluorescent group 4-amino-7-coumarin coupled-acetylated peptide (Ac-peptide) substrate were prepared in a buffer at a certain concentration as a substrate solution. The compounds were added into the reaction wells in a 384-well plate at a designed concentration of 10 μM, 1 μM, 0.5 μM, 0.1 μM, 0.05 μM, 0.01 μM, 0.005 μM, 0.001 μM, and 0.00005 μM, respectively, and then 15 μl of the HDAC solution was added into the reaction wells (15 μl of blank buffer to the control well). […] The results were analyzed by GraphPad Prism software and IC50 values were calculated according to the formula: Y=Background Data+(Top Data−Background Data)/(1+10^((Log IC50−X) a curve slope)), where Y: the inhibition rate (%) and X: the concentration of the compound.
# [2] = molecular target: T2, HDAC8 (Homo sapiens, UniProt Q9BY41); test: as above
# T2 sequence (Q9BY41 1-377): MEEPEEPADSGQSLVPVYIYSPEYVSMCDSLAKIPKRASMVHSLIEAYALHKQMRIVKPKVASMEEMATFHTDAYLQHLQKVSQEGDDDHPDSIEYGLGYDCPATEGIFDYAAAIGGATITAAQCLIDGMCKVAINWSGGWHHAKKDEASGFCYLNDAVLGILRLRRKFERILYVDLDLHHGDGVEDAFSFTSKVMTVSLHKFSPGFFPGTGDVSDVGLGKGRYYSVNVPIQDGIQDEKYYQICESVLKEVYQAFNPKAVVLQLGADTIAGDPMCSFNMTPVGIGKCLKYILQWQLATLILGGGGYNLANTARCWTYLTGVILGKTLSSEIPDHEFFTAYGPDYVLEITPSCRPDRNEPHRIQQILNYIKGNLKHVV
# Experimental: as §2
# [3] = tested on: Human ovarian cancer cell SKOV-3; test: Cell proliferative activity (MTT / cck-8); type: cell-based; conditions: SK-OV-3, incubated for 96 hours, read-out: Half-Inhibitory Concentration IC50 Human ovarian cancer cell SKOV-3
# Experimental: (§1) Tumor cell line A375: human melanoma cell; H460: lung adenocarcinoma cell; Hela: human cervical cancer cell; HepG2: human liver cancer cell; and SKOV-3: human ovarian cancer cell, were all purchased from ATCC and cultured to logarithmic phase according to the cultivation protocol recommended by ATCC. The cells in the logarithmic phase were plated onto a 96-well plate at 2000-3000 cells/well; in the case of adherent cells, the cells should be adherent to the wall. […] After that, the cell proliferative activity was determined by MTT assay for the tumor cells representing the solid tumor model and by cck-8 assay for the tumor cells representing the hematologic tumor model.
# [4] = tested on: Human melanoma A375; test: Cell proliferative activity (MTT / cck-8); type: cell-based; conditions: A-375, incubated for 96 hours, read-out: Half-Inhibitory Concentration IC50 Human melanoma A375
# Experimental: as §1
# [5] = tested on: Human liver cancer cell HepG2; test: Cell proliferative activity (MTT / cck-8); type: cell-based; conditions: incubated for 96 hours, read-out: Half-Inhibitory Concentration IC50 Human liver cancer cell HepG2
# Experimental: as §1
# [6] = tested on: Human cervical cancer cell Hela; test: Cell proliferative activity (MTT / cck-8); type: cell-based; conditions: incubated for 96 hours, read-out: Half-Inhibitory Concentration IC50 Human cervical cancer cell Hela
# Experimental: as §1
# [7] = tested on: Human lung cancer cell H460; test: Cell proliferative activity (MTT / cck-8); type: cell-based; conditions: NCI-H460, incubated for 96 hours, read-out: Half-Inhibitory Concentration IC50 Human lung cancer cell H460
# Experimental: as §1
# [8] = molecular target: T3, HDAC1 (Homo sapiens, UniProt Q13547); test: HDAC inhibitory activity, fluorescence-coupled acetylated peptide substrate assay (Lys-Ac-AMC); type: biochemical
# T3 construct: purchased BPS Bioscience
# T3 sequence (Q13547 whole entry): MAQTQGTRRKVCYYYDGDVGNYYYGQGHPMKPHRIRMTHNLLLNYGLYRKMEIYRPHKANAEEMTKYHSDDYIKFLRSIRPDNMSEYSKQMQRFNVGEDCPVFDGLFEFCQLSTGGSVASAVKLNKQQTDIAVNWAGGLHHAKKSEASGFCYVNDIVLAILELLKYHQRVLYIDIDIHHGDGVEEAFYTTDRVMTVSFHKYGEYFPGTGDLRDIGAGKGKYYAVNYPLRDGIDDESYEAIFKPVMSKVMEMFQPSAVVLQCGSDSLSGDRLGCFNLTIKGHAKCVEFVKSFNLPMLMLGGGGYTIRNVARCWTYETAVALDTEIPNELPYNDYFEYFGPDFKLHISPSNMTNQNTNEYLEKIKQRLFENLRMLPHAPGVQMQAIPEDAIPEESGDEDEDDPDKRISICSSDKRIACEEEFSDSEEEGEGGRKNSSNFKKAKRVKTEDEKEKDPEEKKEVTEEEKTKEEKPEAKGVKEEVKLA
# Experimental: as §2
SMILES,IC50 ([1]; Table 2),IC50 ([1]; Table 3),Selection Ratio HDAC1/6 [1],Selection Ratio HDAC8/6 [1],"IC50 ([2]; IC50 HDAC8, Table 2)","IC50 ([2]; read-out: IC50 HDAC8, Table 3)",IC50 [3],IC50 [4],IC50 [5],IC50 [6],IC50 [7],IC50 ([8]; Table 2),IC50 ([8]; Table 3),"IC50 ([2]; IC50 HDAC8, Table 3)"
"CN(c1ccc(OCCCCC(=O)NO)cc1)c1ncnc2ccccc12 [II-14, N-hydroxy-5-(4-(methyl(4-quinazolinyl)amino)phenoxy)pentanamide]",10 to 100 nM,49 nM,4.1,27.1,> 1000 nM,1330 nM,> 1000 nM,> 1000 nM,> 1000 nM,> 1000 nM,> 1000 nM,100 to 1000 nM,203 nM,–
"CN(c1ccc(OCCCCCC(=O)NO)cc1)c1ncnc2ccccc12 [II-15, N-hydroxy-6-(4-(methyl(4-quinazolinyl)amino)phenoxy)hexanamide]",10 to 100 nM,19 nM,9.3,55.7,> 1000 nM,1060 nM,> 1000 nM,100 to 1000 nM,> 1000 nM,> 1000 nM,> 1000 nM,100 to 1000 nM,176 nM,–
"CN(c1ccc(Oc2ccc(C(=O)NO)cn2)cc1)c1ncnc2ccccc12 [II-18, N-hydroxy-6-(4-(methyl(4-quinazolinyl)amino)phenoxy)nicotinamide]",10 to 100 nM,15 nM,29.1,194.4,> 1000 nM,–,100 to 1000 nM,100 to 1000 nM,100 to 1000 nM,100 to 1000 nM,100 to 1000 nM,100 to 1000 nM,437 nM,2920 nM

# Now from value to compound:
IC50 ([1]; Table 2),IC50 ([1]; Table 3),Selection Ratio HDAC1/6 [1],Selection Ratio HDAC8/6 [1],"IC50 ([2]; IC50 HDAC8, Table 2)","IC50 ([2]; read-out: IC50 HDAC8, Table 3)",IC50 [3],IC50 [4],IC50 [5],IC50 [6],IC50 [7],IC50 ([8]; Table 2),IC50 ([8]; Table 3),"IC50 ([2]; IC50 HDAC8, Table 3)",SMILES
10 to 100 nM,34 nM,2.2,72.3,> 1000 nM,2460 nM,100 to 1000 nM,100 to 1000 nM,100 to 1000 nM,100 to 1000 nM,100 to 1000 nM,10 to 100 nM,76 nM,–,"CN(c1ccc(OCCCC(=O)NO)cc1)c1ncnc2ccccc12 [II-13, N-hydroxy-4-(4-(methyl(4-quinazolinyl)amino)phenoxy)butanamide]"
< 10 nM,10 nM,38.5,167.6,> 1000 nM,–,> 1000 nM,> 1000 nM,> 1000 nM,> 1000 nM,> 1000 nM,100 to 1000 nM,385 nM,1680 nM,"CN(c1ccc(OCc2ccc(C(=O)NO)cc2)cc1)c1ncnc2ccccc12 [II-16, N-hydroxy-4-((4-(methyl(4-quinazolinyl)amino)phenoxy)methyl)benzamide]"
100 to 1000 nM,–,–,–,> 1000 nM,–,> 1000 nM,> 1000 nM,> 1000 nM,> 1000 nM,> 1000 nM,> 1000 nM,–,–,"Cc1nc(Nc2ccc(OCCC(=O)NO)cc2)c2ccccc2n1 [II-24, N-hydroxy-3-(4-((2-methyl-4-quinazolinyl)amino)phenoxy)propionamide]"
